Molecular target: T1, hFXR (Homo sapiens, UniProt Q96RI1)
T1 construct: expressed in transfected cells; host or cells: CV-1 cells
T1 sequence (Q96RI1 1-486): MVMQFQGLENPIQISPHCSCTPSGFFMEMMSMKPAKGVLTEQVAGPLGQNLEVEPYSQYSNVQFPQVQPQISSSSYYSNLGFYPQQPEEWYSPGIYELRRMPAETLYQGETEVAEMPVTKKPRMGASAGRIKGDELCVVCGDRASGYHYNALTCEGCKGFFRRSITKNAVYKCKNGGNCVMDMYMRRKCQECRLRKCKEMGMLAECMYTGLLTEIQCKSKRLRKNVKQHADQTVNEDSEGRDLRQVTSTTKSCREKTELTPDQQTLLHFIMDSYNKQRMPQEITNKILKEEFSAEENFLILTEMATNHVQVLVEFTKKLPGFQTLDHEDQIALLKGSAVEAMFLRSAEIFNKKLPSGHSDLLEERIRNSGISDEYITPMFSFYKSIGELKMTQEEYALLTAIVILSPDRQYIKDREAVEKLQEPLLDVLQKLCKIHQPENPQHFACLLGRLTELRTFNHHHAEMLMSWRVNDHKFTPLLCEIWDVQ
T1 sequence (P19793 1-462 partner): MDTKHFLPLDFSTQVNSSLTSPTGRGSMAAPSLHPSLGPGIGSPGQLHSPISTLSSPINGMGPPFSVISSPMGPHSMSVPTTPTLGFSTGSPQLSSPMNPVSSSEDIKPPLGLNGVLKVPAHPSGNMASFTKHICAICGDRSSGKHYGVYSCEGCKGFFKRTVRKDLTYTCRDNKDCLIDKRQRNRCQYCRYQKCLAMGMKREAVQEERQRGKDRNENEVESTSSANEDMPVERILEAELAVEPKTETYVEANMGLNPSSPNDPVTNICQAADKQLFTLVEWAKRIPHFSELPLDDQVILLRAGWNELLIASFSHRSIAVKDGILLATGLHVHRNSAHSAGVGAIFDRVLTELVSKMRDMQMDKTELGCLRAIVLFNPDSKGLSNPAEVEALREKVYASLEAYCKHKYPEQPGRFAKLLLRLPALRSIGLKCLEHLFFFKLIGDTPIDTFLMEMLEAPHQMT
Experiment: In Vitro FXR Assay (TK): TK-ECRE-luc reporter in transfected CV-1 cells
Assay type: cell-based
Details: 18 hrs, luminescence, maximum efficacy of <25% of the Fexarmine control classified as '+'
Procedure, shortened: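 CV-1, transient co-transfection: hFXR + hRXR + TK-ECRE-luc + pCMX-YFP; charcoal-stripped serum. 18 h post-transfection, DMSO serial dilutions of cpd added; 18 h incubation; lysis, luminescence.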

Row | Compound | EC50 [nM]
1 | CN(C)c1ccc([C@H]2CC[C@H](CN(c3cccc(-c4coc(C5CC5)n4)c3)C(=O)[C@H]3CC[C@H](OC(=O)NCCO)CC3)CC2)cn1 [Compound 4.22, trans-4-((3-(2-Cyclopropyloxazol-4-yl)phenyl)((trans-4-(6-(dimethylamino)pyridine-3-yl)cyclohexyl)methyl)carbamoyl)cyclohexyl (2-hydroxyethyl)carbamate] | ≤ 250
2 | CN(C)c1ccc(C23CCC(CN(c4cccc(-c5coc(C6CC6)n5)c4)C(=O)[C@H]4CC[C@H](OC(=O)NCCO)CC4)(CC2)CC3)cn1 [Compound 4.23, 4-((3-(2-Cyclopropyloxazol-4-yl)phenyl)((4-(6-(dimethylamino)pyridin-3-yl)bicyclo[2.2.2]octan-1-yl)methyl)carbamoyl)cyclohexyl trans-(2-hydroxyethyl)carbamate] | ≤ 250
3 | COc1ccc([C@H]2CC[C@H](CN(c3cc(-c4coc(C5CC5)n4)ccn3)C(=O)[C@H]3CC[C@H](OC(=O)NCCO)CC3)CC2)nc1C [Compound 4.24, trans-4-((4-(2-Cyclopropyloxazol-4-yl)pyridine-2-yl)((trans-4-(5-methoxy-6-methylpyridin-2-yl)cyclohexyl)methyl)carbamoyl)cyclohexyl (2-hydroxyethyl)carbamate] | ≤ 250
4 | COc1ccc([C@H]2CC[C@H](CN(c3cccc(-c4cnn(C5CC5)c4)c3)C(=O)[C@H]3CC[C@H](OC(=O)N4CC(O)C4)CC3)CC2)cc1C [Compound 4.25, trans-4-((3-(1-Cyclopropyl-1H-pyrazol-4-yl)phenyl)((trans-4-(4-methoxy-3-methylphenyl)cyclohexyl)methyl)carbamoyl)cyclohexyl 3-hydroxyazetidine-1-carboxylate] | ≤ 250
5 | COc1ccc([C@H]2CC[C@H](CN(c3cccc(-c4cnn(C5CC5)c4)c3)C(=O)[C@H]3CC[C@H](OC(=O)N4CC(O)C4)CC3)CC2)nc1C [Compound 4.26, trans-4-((3-(1-Cyclopropyl-1H-pyrazol-4-yl)phenyl)((trans-4-(5-methoxy-6-methylpyridin-2-yl)cyclohexyl)methyl)carbamoyl)cyclohexyl 3-hydroxyazetidine-1-carboxylate] | ≤ 250
6 | COc1ccc([C@H]2CC[C@H](CN(c3cc(-c4cnn(C5CC5)c4)ccn3)C(=O)[C@H]3CC[C@H](OC(=O)N4CC(O)C4)CC3)CC2)cc1C [Compound 4.27, trans-4-((4-(1-Cyclopropyl-1H-pyrazol-4-yl)pyridin-2-yl)((trans-4-(4-methoxy-3-methylphenyl)cyclohexyl)methyl)carbamoyl)cyclohexyl 3-hydroxyazetidine-1-carboxylate] | ≤ 250
7 | COc1ccc([C@H]2CC[C@H](CN(c3cccc(-c4cnn(C5CC5)c4)c3)C(=O)[C@H]3CC[C@H](OC(=O)N4CC(CSC)C4)CC3)CC2)cc1C [Compound 4.28, trans-4-((3-(1-Cyclopropyl-1H-pyrazol-4-yl)phenyl)((trans-4-(4-methoxy-3-methylphenyl)cyclohexyl)methyl)carbamoyl)cyclohexyl 3-((methylthio)methyl)azetidine-1-carboxylate] | ≤ 250
8 | CCNC(=O)O[C@H]1CC[C@H](C(=O)N(C[C@H]2CC[C@H](c3ccc(OC)c(C#N)c3)CC2)c2cc(-c3cnn(C(C)C)c3)ccn2)CC1 [Compound 5, trans-4-(((trans-4-(3-Cyano-4-methoxyphenyl)cyclohexyl)methyl)(4-(1-isopropyl-1H-pyrazol-4-yl)pyridin-2-yl)carbamoyl)cyclohexyl ethylcarbamate] | ≤ 250
9 | CNC(=O)O[C@H]1CC[C@H](C(=O)N(C[C@H]2CC[C@H](c3ccc(OC)c(C)c3)CC2)c2cc(-c3cnc(C4CC4)s3)ccn2)CC1 [Compound 5.01, trans-4-((4-(2-Cyclopropylthiazol-5-yl)pyridin-2-yl)((trans-4-(4-methoxy-3-methylphenyl)cyclohexyl)methyl)carbamoyl)cyclohexyl methylcarbamate] | ≤ 250
10 | CNC(=O)O[C@H]1CC[C@H](C(=O)N(C[C@H]2CC[C@H](c3ccc(OC)c(C)c3)CC2)c2cc(-c3cnc(C(C)C)s3)ccn2)CC1 [Compound 5.02, trans-4-((4-(2-Isopropylthiazol-5-yl)pyridin-2-yl)((trans-4-(4-methoxy-3-methylphenyl)cyclohexyl)methyl)carbamoyl)cyclohexyl methylcarbamate] | ≤ 250
11 | CNC(=O)O[C@H]1CC[C@H](C(=O)N(C[C@H]2CC[C@H](c3ccc(OC)c(C)n3)CC2)c2cc(-c3cnc(C4CC4)s3)ccn2)CC1 [Compound 5.03, trans-4-((4-(2-Cyclopropylthiazol-5-yl)pyridin-2-yl)((trans-4-(5-methoxy-6-methylpyridin-2-yl)cyclohexyl)methyl)carbamoyl)cyclohexyl methylcarbamate] | ≤ 250
12 | CNC(=O)O[C@H]1CC[C@H](C(=O)N(C[C@H]2CC[C@H](c3ccc(OC)c(C)n3)CC2)c2cc(-c3cnc(C(C)C)s3)ccn2)CC1 [Compound 5.04, trans-4-((4-(2-Isopropylthiazol-5-yl)pyridin-2-yl)((trans-4-(5-methoxy-6-methylpyridin-2-yl)cyclohexyl)methyl)carbamoyl)cyclohexyl methylcarbamate] | ≤ 250
13 | CNC(=O)O[C@H]1CC[C@H](C(=O)N(C[C@H]2CC[C@H](c3ccc(OC)c(C#N)c3)CC2)c2cc(-c3cnc(C4CC4)s3)ccn2)CC1 [Compound 5.05, trans-4-(((trans-4-(3-Cyano-4-methoxyphenyl)cyclohexyl)methyl)(4-(2-cyclopropylthiazol-5-yl)pyridin-2-yl)carbamoyl)cyclohexyl methylcarbamate] | ≤ 250
14 | CNC(=O)O[C@H]1CC[C@H](C(=O)N(C[C@H]2CC[C@H](c3ccc(OC)c(C#N)n3)CC2)c2cccc(-c3cnc(C4CC4)s3)c2)CC1 [Compound 5.06, trans-4-(((trans-4-(6-Cyano-5-methoxypyridin-2-yl)cyclohexyl)methyl)(3-(2-cyclopropylthiazol-5-yl)phenyl)carbamoyl)cyclohexyl methylcarbamate] | ≤ 250
15 | CNC(=O)O[C@H]1CC[C@H](C(=O)N(C[C@H]2CC[C@H](c3ccc(OC)c(C#N)n3)CC2)c2cc(-c3cnc(C4CC4)s3)ccn2)CC1 [Compound 5.07, trans-4-(((trans-4-(6-Cyano-5-methoxypyridin-2-yl)cyclohexyl)methyl)(4-(2-cyclopropylthiazol-5-yl)pyridin-2-yl)carbamoyl)cyclohexyl methylcarbamate] | ≤ 250
16 | CNC(=O)O[C@H]1CC[C@H](C(=O)N(C[C@H]2CC[C@H](c3ccc(OC)c(C)n3)CC2)c2cccc(-c3cnc(C(C)C)s3)c2)CC1 [Compound 5.08, trans-4-((3-(2-Isopropylthiazol-5-yl)phenyl)((trans-4-(5-methoxy-6-methylpyridin-2-yl)cyclohexyl)methyl)carbamoyl)cyclohexyl methylcarbamate] | ≤ 250
17 | CNC(=O)O[C@H]1CC[C@H](C(=O)N(C[C@H]2CC[C@H](c3ccc(N(C)C)nc3)CC2)c2cccc(-c3cnn(C4CC4)c3)c2)CC1 [Compound 5.09, trans-4-((3-(1-Cyclopropyl-1H-pyrazol-4-yl)phenyl)((trans-4-(6-(dimethylamino)pyridin-3-yl)cyclohexyl)methyl)carbamoyl)cyclohexyl methylcarbamate] | ≤ 250
